For 25 molecules, IC50 results are on record in patent US11065253B2, “Arylquinazolines” (Merck Patent GmbH, priority 2013, dated 2021).

Broadly, the IC50 is the concentration needed to halve the response being measured.

One test deals with phospho-serine 2056 DNA-PK in HCT116 cells. The test can be described thus: DNA-PK phosphorylation at serine 2056 (cellular), ELISA in bleomycin-treated HCT116 cells. Type of test: cell-based. The note with it: Homo sapiens, HCT-116, 6 h, cellular; HCT116 cells, 10 μM bleomycin, six hours; read-out: IC50 pDNA-PK. Put shortly: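 Test compounds and bleomycin (10 μM) are added to adherent HCT116 cells for 6 h. Detection uses an HRP-based chemiluminescent ELISA, with phospho-DNA-PK signals standardised to total protein.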
For orientation: In an ELISA, binding on a coated surface is turned into a signal by an enzyme label.
In the case of `COC(=O)c1ccc(C(O)c2cc(-c3ncnc4cc(N5CCOCC5)ccc34)c(F)cc2Cl)nn1` (stereo not shown) [Example 58, 6-{[2-Chloro-4-fluoro-5-(7-morpholin-4-yl-quinazolin-4-yl)phenyl]-hydroxymethyl}-pyridazine-3-carboxylic acid methyl ester], the half-inhibitory concentration (IC50) was in the range of 5 to 10 µM. On to `Cc1nccnc1C(O)c1cc(-c2ncnc3cc(N4CCOCC4)ccc23)c(F)cc1F` (stereo not shown) [Example 84, [2,4-Difluoro-5-(7-morpholin-4-yl-quinazolin-4-yl)-phenyl]-(3-methyl-pyrazin-2-yl)methanol], for which the IC50 was below 0.5 µM.

Regarding `OC(c1cnccn1)c1cc(-c2ncnc3cc(N4CCOCC4)ccc23)c(F)cc1Cl` (stereo not shown) [Example 34, [2-Chloro-4-fluoro-5-(7-morpholin-4-yl-quinazolin-4-yl)phenyl]-pyrazin-2-ylmethanol], the IC50 was 5 to 10 µM.

As to `O[C@@H](c1ccc(F)c(-c2ncnc3cc(N4CCOCC4)ccc23)c1)c1nccnc1Cl` [Example 28, (S)-(3-Chloro-pyrazin-2-yl)-[4-fluoro-3-(7-morpholin-4-yl-quinazolin-4-yl)phenyl]-methanol], the IC50 was in the range of 5 to 10 µM.

The test is the same for the next values; noted with them: Homo sapiens, HCT-116, cellular DNA-PK phosphorylation at serine 2056, HCT116 cells; read-out: IC50 pDNA-PK.
For the molecule `OC(c1ccc(F)c(-c2ncnc3cc(N4CCOCC4)ccc23)c1)c1ncccc1Br` (stereo not shown) [Example 478, (3-bromo-pyridin-2-yl)-[4-fluoro-3-(7-morpholin-4-yl-quinazolin-4-yl)-phenyl]methanol], the IC50 was below 0.5 µM.

As for `COc1cncnc1C(O)c1cc(-c2ncnc3cc(N4CCOCC4)ccc23)ccc1Cl` (stereo not shown) [Example 408, [2-Chloro-5-(7-morpholin-4-yl-quinazolin-4-yl)-phenyl]-(5-methoxy-pyrimidin-4-yl)-methanol (Ena 2)], the half-inhibitory concentration (IC50) is 0.5 to 5 µM.

As for `Cn1c(C(O)c2ccc(F)c(-c3ncnc4cc(N5CCOCC5)ccc34)c2)cccc1=O` (stereo not shown) [Example 375, 6-{[4-Fluoro-3-(7-morpholin-4-yl-quinazolin-4-yl)-phenyl]hydroxy-methyl}-1-methyl-1H-pyridin-2-one (Ena 2)], the IC50 was 0.5 to 5 µM.

The same test, now with this note: Homo sapiens, HCT-116, phospho-serine 2056 DNA-PK, bleomycin-treated HCT116 cells; class symbols A-D; read-out: IC50 pDNA-PK.
`COC(c1ccc(F)c(-c2ncnc3cc(N4CCOCC4)ccc23)c1)c1nccs1` (stereo not shown) [Example 177, 4-[2-Fluoro-5-(-methoxythiazol-2-ylmethyl)phenyl]-7-morpholin-4-yl-quinazoline]: the IC50 was 10 to 30 µM. Still for that read-out and setting: the value for `Nc1nccnc1C(O)c1cc(-c2ncnc3cc(N4CCOCC4)ccc23)c(F)cc1Cl` (stereo not shown) [Example 117, (3-Amino-pyrazin-2-yl)-[2-chloro-4-fluoro-5-(7-morpholin-4-yl-quinazolin-4-yl)-phenyl]methanol] was 0.5 to 5 µM. On the same count and under the same terms, for `OCCOc1nccnc1C(O)c1ccc(F)c(-c2ncnc3cc(N4CCOCC4)ccc23)c1` (stereo not shown) [Example 105, 2-(3-{[4-fluoro-3-(7-morpholin-4-yl-quinazolin-4-yl)-phenyl]hydroxy-methyl}pyrazin-2-yl-oxy)ethanol] the value was 10 to 30 µM; for `OC(c1cccc(-c2ncnc3cc(N4CCOCC4)ccc23)c1)(c1nccs1)C(F)(F)F` (stereo not shown) [Example 159, 2,2,2-Trifluoro-1-[3-(7-morpholin-4-yl-quinazolin-4-yl)-phenyl]-1-thiazol-2-ylethanol], 10 to 30 µM. Still for that read-out and setting: for `COc1ccc(C(O)c2cc(-c3ncnc4cc(N5CCOCC5)ccc34)c(F)cc2F)cc1` (stereo not shown) [Example 120, [2,4-Difluoro-5-(7-morpholin-4-yl-quinazolin-4-yl)-phenyl]-(4-methoxyphenyl)-methanol] the value was 0.5 to 5 µM. Regarding `COc1ccc(C(O)c2cc(-c3ncnc4cc(N5CCOCC5)ccc34)c(F)cc2F)c(F)c1` (stereo not shown) [Example 124, [2,4-Difluoro-5-(7-morpholin-4-yl-quinazolin-4-yl)-phenyl]-(2-fluoro-4-methoxy-phenyl)methanol], the IC50 lay in the range of 0.5 to 5 µM.

As to `OCc1csc(C(O)c2cc(-c3ncnc4cc(N5C6CCC5COC6)ccc34)c(F)cc2Cl)n1` (stereo not shown) [Example 187, {2-Chloro-4-fluoro-5-[7-(3-oxa-8-aza-bicyclo[3.2.1]oct-8-yl)quinazolin-4-yl]-phenyl}-(4-hydroxy-methylthiazol-2-yl)-methanol], the concentration for half-maximal inhibition (IC50) lay in the range of 10 to 30 µM. Regarding `OC(c1cccc(-c2ncnc3cc(N4CCOCC4)ccc23)c1)(c1nccs1)C(F)(F)F` (stereo not shown) [Example 172, 2,2,2-Trifluoro-1-[3-(7-morpholin-4-yl-quinazolin-4-yl)-phenyl]-1-thiazol-2-ylethanol], the IC50 lay in the range of 10 to 30 µM. Turning to `Cn1nc(C(O)c2cc(-c3ncnc4cc(N5CCOCC5)ccc34)c(F)cc2F)ccc1=O` (stereo not shown) [Example 219, 6-{[2,4-Difluoro-5-(7-morpholin-4-yl-quinazolin-4-yl)-phenyl]hydroxy-methyl}-2-methyl-2H-pyridazin-3-one], the IC50 was in the range of 0.5 to 5 µM.

Regarding `OC(c1ccc(F)c(-c2ncnc3cc(C4=CCOCC4)ccc23)c1)c1nccs1` (stereo not shown) [Example 139, {3-[7-(3,6-Dihydro-2H-pyran-4-yl)-quinazolin-4-yl]-4-fluoro-phenyl}-thiazol-2-ylmethanol], the IC50 was in the range of 10 to 30 µM.

Still in this test, the particulars now being: Homo sapiens, HCT-116, phospho-serine 2056 DNA-PK, bleomycin-treated HCT116 cells; read-out: IC50 pDNA-PK.
For the molecule `Cc1nccnc1C(C(N)=O)c1cc(-c2ncnc3cc(N4CCOCC4)ccc23)ccc1Cl` (stereo not shown) [Example 303, 2-[2-Chloro-5-(7-morpholin-4-yl-quinazolin-4-yl)-phenyl]-2-(3-methyl-pyrazin-2-yl)-acetamide], the IC50 lay within 5 to 10 µM. For `Cc1cncc(C(O)c2ccc(F)c(-c3ncnc4cc(N5CCOCC5)ccc34)c2)n1` (stereo not shown) [Example 296, [4-Fluoro-3-(7-morpholin-4-yl-quinazolin-4-yl)-phenyl]-(6-methyl-pyrazin-2-yl)-methanol], the IC50 was in the range of 5 to 10 µM. Take `NC(=O)C(c1ccc(F)c(-c2ncnc3cc(N4CCOCC4)ccc23)c1)c1ncnn2cccc12` (stereo not shown) [Example 299, 2-[4-Fluoro-3-(7-morpholin-4-yl-quinazolin-4-yl)-phenyl]-2-pyrrolo-[2,1-f][1,2,4]triazin-4-ylacetamide]: the IC50 lay in the range of 10 to 30 µM. With `Cc1nccnc1[C@H](O)c1ccc(F)c(-c2ncnc3cc(N4CCOCC4)cc(F)c23)c1` [Example 248, (R)-[4-Fluoro-3-(5-fluoro-7-morpholin-4-ylquinazolin-4-yl)-phenyl]-(3-methyl-pyrazin-2-yl)-methanol], the IC50 is below 0.5 µM.

Turning to `OC(c1ccc(F)c(-c2ncnc3cc(N4CCOCC4)ccc23)c1)c1nncc2ccoc12` (stereo not shown) [Example 335, [4-Fluoro-3-(7-morpholin-4-yl-quinazolin-4-yl)-phenyl]furo[2,3-d}-pyridazin-7-yl-methanol], the IC50 was below 0.5 µM.

Staying with this test, now noted: cellular DNA-PK phosphorylation at serine 2056, HCT116 cells; read-out: IC50 pDNA-PK.
As for `Cc1cncnc1C(C(N)=O)c1cc(-c2ncnc3cc(N4CCOCC4)ccc23)ccc1Cl` (stereo not shown) [Example 407, 2-[2-Chloro-5-(7-morpholin-4-yl-quinazolin-4-yl)-phenyl]-2-(5-methyl-pyrimidin-4-yl)-acetamide], the IC50 was 0.5 to 5 µM. Turning to `OC(c1cc(-c2ncnc3cc(N4CCOCC4)ccc23)ccc1Cl)c1ncnc2ccoc12` (stereo not shown) [Example 415, [2-Chloro-5-(7-morpholin-4-yl-quinazolin-4-yl)-phenyl]furo[3,2-d}-pyrimidin-4-yl-methanol (Ena 1)], the IC50 is below 0.5 µM.

Still in this test, the particulars now being: phospho-serine 2056 DNA-PK, bleomycin-treated HCT116 cells; class symbols A-D; read-out: IC50 pDNA-PK.
Regarding `CC(C#N)Oc1ccc(C(O)c2cc(-c3ncnc4cc(N5CCOCC5)ccc34)c(F)cc2Cl)nn1` (stereo not shown) [Example 101, 2-(6-{[2-Chloro-4-fluoro-5-(7-morpholin-4-yl-quinazolin-4-yl)-phenyl]hydroxy-methyl}pyridazin-3-yloxy)propionitrile], the IC50 is below 0.5 µM.
